# In patent US20240415825A1, “COMPOUNDS FOR THE TREATMENT OF MALARIA” (FUNDACIÓ INSTITUT DE BIOENGINYERIA DE CATALUNYA, priority 2021, published 2024):
# Columns and labels:
# [1] = tested on: P. falciparum ring or trophozoite stage cultures; experiment: Stage of growth inhibition analysis; type: cell-based, Plasmodium falciparum; conditions: added to ring stages at its IC80
# Protocol: For stage of growth inhibition analysis, P. falciparum cultures were synchronized at ring or trophozoite stages by repeated treatment with 5% sorbitol or 70% Percoll, respectively. Half of each culture remained untreated and the other half was treated with the IC80 of AID-X-2020. At different time points, culture samples were stained with Giemsa and the number of rings, early and mature trophozoites and schizonts was counted by microscopic examination of at least 100 pRBCs for each sample. Pictures were taken with a Nikon Eclipse 50i microscope equipped with a DS-Fi1 camera (Nikon).
# [2] = target: T1, preformed Aβ40 fibrils (Homo sapiens, UniProt P05067); experiment: Disaggregation of preformed Aβ40 fibrils; type: biochemical; conditions: 24 h after fibril formation, ThT and TEM
# T1 construct: Amyloid-β peptide fragment 1-40 (Aβ40); purchased GenScript
# T1 sequence (P05067 672-711 limits assumed, species assumed): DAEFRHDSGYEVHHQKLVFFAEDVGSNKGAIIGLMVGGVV
# Protocol: To test the effect of AID-X-2020 on already formed amyloid fibrils, Aβ40 DMSO solutions were diluted to 25 μM in PBS and incubated as above in order to allow fibril formation. Then, AID-X-2020 was added at different concentrations (0.1 μM AID-X-2020, 1 μM AID-X-2020 and 10 μM AID-X2020) and the mixture was incubated in the same conditions for another 24 h. The final samples always contained less than 5% DMSO to avoid interference of this solvent on Aβ40 amyloid fibril formation. Finally, ThT treatment and TEM analysis was performed as described in section 3.1 of EXAMPLE 3. The analysis of aggregation inhibition and disaggregation performed with aggregative peptides present in P. falciparum proteins were conducted in the same way.
# [3] = In vivo toxicity assay in mice; parameters: species or system BALB/c mice
# Protocol: BALB/c female and male mice (Janvier Laboratories) were maintained with unlimited access to food and water under standard environmental conditions (20-24° C. and 12/12 h light/dark cycle). […] First, the lowest dose was intravenously injected to one female and one male mice. An oxygen stream of 4% isoflurane was used to anesthetize the mice, which were then maintained during the whole procedure (less than 3 minutes) with 2.5% isoflurane.
# After the administration, mice were observed and different parameters related to their behavior (lethargy, motility alterations, seizures, coma, automutilation, aggressiveness, vocalizations, stereotyped movements) and physical conditions (pain, respiratory disturbances, tachycardia or bradycardia, dehydration, hair loss, body weight loss, dermatitis, bad hygiene, pruritus, tearing) were followed. If after 48 h no deleterious effects were observed, the following dose was administered to two other male and female mice.
# [4] = tested on: human umbilical vein endothelial cell cultures; experiment: Cytotoxicity (CC50) and in vitro therapeutic index; type: cell-based
# [5] = Cytotoxicity (CC50) and in vitro therapeutic index; type: cell-based, human; conditions: human umbilical vein endothelial cells (HUVEC); human umbilical vein endothelial cell cultures
# [6] = tested on: P. falciparum 3D7 strain; experiment: Dot blot / Western blot of treated P. falciparum cultures (ubiquitinated proteins, amyloid fibrils); type: cell-based, Plasmodium falciparum
# Protocol: Cultures of the P. falciparum 3D7 strain were sorbitol synchronized in ring stages, and after 24 h were treated for 90 min with AID-X-2020 concentrations ranging from 33 nM to 33 μM. After that time, cultures were spun down and pellets were washed once with ice-cold PBS supplemented with EDTA-free protease inhibitor cocktail (PIC, Roche; 1 PIC tablet/10 mL PBS). For anti-ubiquitin Western blots, PBS was also supplemented with 20 mM N-ethylmaleimide. […] Protein extracts were quantified with the bicinchoninic acid assay (ThermoFisher Scientific), following the manufacturer's instructions. […]
# For Western blots, 15 μg of saponin-extracted proteins were incubated for 5 min at 95° C. diluted in Laemmli solution (0.14 M SDS, 0.125 M tris-HCl, pH 6.8, 20% glycerol, 10% 2-mercaptoethanol, 3 mM bromophenol blue) and resolved by SDS-PAGE in 12% bis-tris acrylamide (Bio-Rad) gels run at 80 V until samples entered the resolving gel and at 120 V afterwards. […] After probing with secondary antibodies, for both dot blot and Western blot membranes, four washes with TBS-Tween and one last wash with TBS were done and peroxidase substrate (ECL Prime Western Blotting Detection Reagent, Amersham Life Science, Inc.) was poured on the membrane and chemiluminescent signal was measured in a LAS 4000 reader (ImageQuant) at different exposure times.
# [7] = tested on: P. falciparum W2 strain; experiment: Growth inhibition, chloroquine-resistant W2 strain; type: cell-based; conditions: Plasmodium falciparum
# Excerpt: P. falciparum parasites of chloroquine-sensitive (3D7 strain) and chloroquine- and artemisinin-resistant strains were processed as described in section 1.1.3 of EXAMPLE 1.
# In particular, the P. falciparum resistant strains were the following: (1) strain W2 MRA-157 (BEI Resources, managed by ATCC) which is chloroquine-resistant; (2) strains 3D7 harboring the K13 mutations associated to artemisinin resistance, either M5791 or R561H (both provided by Dr. David A. Fidock and referenced in Stokes, B. H. et al., 2021); (3) Cam 3.11 strain which is chloroquine and sulfadoxine/pyrimethamine-resistant; and (4) Cam 3.11 strain modified to carry K13 mutations associated to artemisinin-resistant strains, either R561H or R539T, therefore being multiresistant strains. All Cam 3.11 strains (3) and (4) were provided by Dr. David A. Fidock and are referenced in Straimer, J. et al., 2015 and Stokes, B. H. et al., 2021.
# Then, the required amount of AID-X-2020 was added to each well at different concentrations (0.0001, 0.001, 0.01, 1 and 10 μM) and triplicates.
# [8] = target: T2, Aβ40 (Homo sapiens, UniProt P05067); experiment: In vitro Aβ40 aggregation (ThT fluorescence, TEM); type: biochemical; conditions: 25 μM Aβ40
# T2 construct: Amyloid-β peptide fragment 1-40 (Aβ40); purchased GenScript
# T2 sequence (P05067 672-711 limits assumed, species assumed): as above
# Protocol: For the in vitro analysis of As peptide fragment 1-40 (Aβ40) aggregation, 1 mg of Aβ40 (GenScript) was dissolved in 500 μL of 1,1,1,3,3,3-hexafluoro-2-propanol (HFIP, Fluka) under vigorous stirring for 1 h and sonicated for 30 min in a sonication bath. Afterwards, the solution was stirred for 1 h and maintained at 4° C. for 30 min. Aliquots were prepared, HFIP was evaporated under a nitrogen stream for a few seconds and the peptide was stored at −20° C. […] The final sample always contained less than 5% DMSO to avoid interference of this solvent on Aβ40 amyloid fibril formation. Finally, ThT treatment was performed as described above.
# 25 μM ThT was added to each sample and fluorescence was measured by exciting samples at 440 nm and recording the emission from 465 nm to 600 nm. A blank measurement of each sample was done before adding ThT.
# A carbon-coated copper grid was deposited on top of a 50-μL drop of each solution for 30 min. Then, the excess liquid was removed with filter paper and the grid was placed on top of a water drop for 30 s and finally negatively stained for 2 min with 20 μL of 2% uranyl acetate. Samples were observed using a JEM 1010 transmission electron microscope (JEOL Ltd., Japan). Images were acquired using a CCD Orius camera (Gatan, Inc., USA).
smiles,measurement,setting,value
"CCN(CC)c1ccc(/C=C/c2cc[n+](CCCCCCCCCC[n+]3ccc(/C=C/c4ccc(N(CC)CC)cc4)c(C)c3)cc2C)cc1 [AID-X-2020, 1,1′-(decane-1,10-diyl)bis{4-[(E)-4-(diethylamino)styryl]-3-methylpyridin-1-ium} dibromide]",stage of growth arrest,[1],arrested the life cycle of the pathogen at trophozoite stage
same,concentration disassembling preformed Aβ40 fibrils,[2],> 90 nM
same,dose at which adverse effects start,[3]; female mice,10 mg/kg
same,dose at which toxicity starts being observed,[3]; male mice,17 mg/kg
same,Therapeutic index in vitro,[4]; 50% cytotoxic concentration (CC50)/IC50 in 3D7 strain,23.3
same,therapeutic index (CC50/IC50),"[4]; HUVEC CC50, text value",37.8
same,CC50,[5],3400 nM
same,effect on ubiquitinated proteins,"[6]; 90 nM treatment of P. falciparum cultures, along time",reduction in ubiquitinated proteins
same,concentration inhibiting amyloid fibril formation,"[6]; 90 min exposure, dot blot",> 3 µM
same,IC50,[7],90 ± 1 nM
same,inhibition of the aggregation of Aβ40,[8],strong inhibitor
